Measurements: patent US10253002B2, “Compounds and methods of treating infections” (Neoculi Pty Ltd., priority 2013, dated 2019)
Several values for one entry are separate records, joined by “and”; a condition that tells them apart may be missing. Equal values may be shown once. Read-outs that look alike come from different tables or passages of the source.

What was measured:
[1] = tested on: MRSA; assay: Broth microdilution MIC, Example 7 (NCL812 and analogues); format: cell-based, Staphylococcus aureus; conditions: for activity against MRSA among analogues: MIC testing, two MRSA strains; for MIC: Staphylococcus aureus; for MIC / MRSA: MRSA
In short: (§1)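 Values are MICs in μg/ml from broth microdilution per CLSI, with growth scored against a drug-free well.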

[2] = tested on: VRE; assay: as above; format: cell-based, Enterococcus spp.; conditions: for MIC: Enterococcus; for MIC / VRE: VRE; for activity against VRE among analogues: MIC testing, two VRE strains
In short: as §1

[3] = tested on: Escherichia coli; assay: as above; format: cell-based; conditions: E. coli, 24 hours, duplicate lines per compound; for MIC: Escherichia coli, read-out: MIC (μg/ml) at 24 hours
[4] = tested on: Pseudomonas aeruginosa; assay: as above; format: cell-based; conditions: 24 hours, duplicate lines per compound; for MIC: Pseudomonas aeruginosa, 24 h, read-out: MIC (μg/ml) at 24 hours, P. aeruginosa
[5] = Bioassay ranking of the analogues tested; conditions: M + R (MRSA and VRE combined)
[6] = 24 hours, duplicate lines per compound
[7] = 24 h, read-out: MIC (μg/ml) at 24 hours, MRSA 1, MRSA 1, 24 hours, duplicate lines per compound
[8] = 24 h, read-out: MIC (μg/ml) at 24 hours, MRSA 2, MRSA 2, 24 hours, duplicate lines per compound
[9] = bioassay ranking, read-out: MRSA
[10] = 24 h, read-out: MIC (μg/ml) at 24 hours, VRE 1, VRE 1, 24 hours, duplicate lines per compound
[11] = 24 h, read-out: MIC (μg/ml) at 24 hours, VRE 2, VRE 2, 24 hours, duplicate lines per compound
[12] = bioassay ranking, read-out: VRE

MIC (μg/ml) at 24 hours, MRSA 2 [1, 6]	MIC [1, 7] [µg/mL]	MIC [1, 8] [µg/mL]	MIC [1, 9] [µg/mL]	MIC [2, 10] [µg/mL]	MIC [2, 11] [µg/mL]	MIC [2, 12] [µg/mL]	MIC (μg/ml) at 24 hours, VRE 1 [2, 6] [µg/mL]	MIC (μg/ml) at 24 hours, VRE 2 [2, 6]	MIC [3] [µg/mL]	MIC [4] [µg/mL]	MIC (μg/ml) at 24 hours, MRSA 1 [1, 6]	MIC (μg/ml) at 24 hours, E. coli [3] [µg/mL]	MIC (μg/ml) at 24 hours, P. aeruginosa [4] [µg/mL]	Compound	activity against MRSA among analogues [1]	activity against VRE among analogues [2]	M + R [5] [µg/mL]	MRSA ([1]; bioassay ranking) [µg/mL]	VRE ([2]; bioassay ranking) [µg/mL]
8 µg/mL	4	16	8	4	4	3	2	2 µg/mL	> 128	> 128				Cl.N=C(N/N=C/c1ccc(Cl)cc1)N/N=C/c1ccc(C(F)(F)F)cc1F [NCL078]	greatest activity	greatest activity	5.5		
8 µg/mL	4	4	5	2	4	3			> 128	> 128				Cl.N=C(N/N=C/c1ccc(F)cc1)N/N=C/c1ccc(Cl)cc1 [NCL079]	greatest activity	greatest activity	4		
8 µg/mL	4	4	5	2	4	3			> 128	> 128				C/C(=N\NC(=N)N/N=C/c1ccc(Cl)cc1)c1ccc(C(F)(F)F)cc1.Cl [NCL080]	greatest activity	greatest activity	4		
8 µg/mL and 4 µg/mL							1	4 µg/mL			4 µg/mL	>128	>128	C/C(=N\NC(=N)N/N=C/c1ccc(Cl)cc1)c1ccc(Cl)cc1.Cl [NCL081]	greatest activity	greatest activity	3.75	5	2.5
8 µg/mL							4	2 µg/mL and 4 µg/mL			8 µg/mL and 4 µg/mL	>128	>128	Cl.N=C(N/N=C/c1ccc(Cl)cc1)N/N=C/c1ccccc1Cl [NCL082]	greatest activity	greatest activity	5.25	7	3.5
4 µg/mL	2	8	4	2	2	2			> 128	> 128				Cl.N=C(N/N=C/c1ccc(Cl)cc1)N/N=C/c1ccc(Cl)cc1F [NCL084]	greatest activity	greatest activity	3		
8 µg/mL							4	4 µg/mL			16 µg/mL and 8 µg/mL	>128	>128	Cl.N=C(NN=Cc1ccc(Cl)cc1)NN=Cc1ccccc1F [NCL088]	greatest activity	greatest activity	7	10	4
	4	4	5	0.5	1	0.75		1 µg/mL	> 128	> 128	8 µg/mL			C/C(=N\NC(=N)N/N=C(\C)c1ccc(C(F)(F)F)cc1)c1ccc(Cl)cc1.Cl [NCL089]	greatest activity		2.875		
